From patent US20050147691A1, “Catalytic oxidation of peroxy salts” (priority 2002, published 2005)

Details: DPS 1 mM, ambient temperature
Protocol: The oxidation performance of the oxidizer or oxidizer based formulations was determined by fading of the crystal violet dye solution color. The fading of the color was monitored by measuring the UV absorbance of the dye solution at 589 nm, before and after addition of oxidizer or oxidizer based formulation. The change in absorbance or fading of color of the dye solution, corresponds to the oxidation activity of the oxidizer. The greater the change in absorbance, more reactive is the oxidizer composition.
The oxidation activity was determined by measuring the destruction of crystal violet dye color at a wavelength of 589 nm by these formulations.
Crystal Violet Dye solution: Prepare crystal violet dye solution by dissolving 5 mg of crystal violet dye in 1000 mls of deionized water. Dilute the solution accordingly to get a sharp peak at 589 nm.
Procedure: • 1. […] Into 1500 mls beaker add 1000 mls of crystal violet dye solution. • 3. Using Hach spectrophotometer measure initial absorbance of the dye solution at 589 nm. • 4. […] Measure the absorbance at 589 nm after 1 and 2 hours reaction time. • 6. Calculate the percent decrease in crystal violet dye absorbance at 589 nm using the formula: [formula] Where Absi=Absorbance of crystal violet dye solution at the start of the experiment […]

SMILES: O.O.O.O.O.O.O.O=S(=O)([O-])[O-].[Zn+2] [zinc sulfate, zinc sulfate heptahydrate]
- effect on the oxidation performance of sodium dipersulfate, in words: no effect

SMILES: O.O.O.O.O.O=S(=O)([O-])[O-].[Cu+2] [copper sulfate, copper sulfate pentahydrate]
- effect on the oxidation performance of sodium dipersulfate, in words: increased
